Source: patent US20210177889A1, “GASEOUS PHARMACEUTICAL COMPOSITION FOR HYPERTENSION THERAPY” (KEIO UNIVERSITY, priority 2019, published 2021)

System: hypertension attributed to 5/6 nephrectomy
Experiment: Prophylactic effect of one hour daily H2 inhalation after 5/6 nephrectomy, invasive arterial blood pressure at 4 weeks
Assay type: in vivo, Lewis rat
Settings: four weeks after 5/6 nephrectomy; 1.3% H2 inhaled one hour daily from immediately after nephrectomy; N=3; mean±SE; P=0.02 vs control gas (134.1±3.3)
Experimental: Invasive blood pressure measurement was performed 4 weeks after gas inhalation. An arterial catheter (PE50, Natsume) was inserted under isoflurane inhalation into the left femoral artery, and arterial blood pressure was measured (DX-360, Nihon Kohden). In order to elicit renal hypertension, 5/6 nephrectomy was carried out with slight modification to previously described methods (Nephrology (Carlton) 19, 552-561; 10.1111/nep.12279 (2014); J. Am. Soc. Nephrol. 4, 2023-2031 (1994); and Kidney Int. 40, 29-34; 10.1038/ki.1991.175 (1991).). Briefly, rats were anesthetized by isoflurane inhalation (induction at 4% and maintenance at 1.5%), and upper midline laparotomy of about 4 cm was carried out. Surgical operation was performed under a microscope, the left renal artery branch was identified, and selectively ligated with 7-0 silk at a position as close as possible to the left kidney so that macroscopic infarction is caused in about ⅔ of the left renal cortex. In the first pilot research (FIGS. 1a and 2), a high-temperature cautery pen (AA11, Bovie, Tenn., U.S.A.) was used to add the resection of the infarcted portion of the kidney. Subsequently, the right renal artery, the renal vein, and the urinary duct was ligated with 4-0 silk, and the right kidney were resected. The abdominal wall and the skin were closed with a 4-0 nylon thread. […]

[2H][2H] [H2 gas, Molecular hydrogen (H2)]
mean arterial pressure (MAP): 94.2±10.3 mmHg
